In ChEMBL document CHEMBL1201862, “PubChem BioAssay data set” (2004):
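Grown in 96-well plates, cells were treated for 48 hours with each compound at five concentrations. Insufficient inhibition: endpoint recorded as highest concentration tested. The concentration for 50% growth inhibition is given as GI50.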 Calls of active or inactive are those of the source. No stated cut-off is given here; in the data, active = GI50 up to about 1.1 µM and inactive = higher.

Columns and labels:
Assay in all cases: growth of human tumour cells (NCI), 48 h
HCT-15 = tested on: HCT-15
NCI-H522 = tested on: NCI-H522
NCI-H23 = tested on: NCI-H23
SNB-19 = tested on: SNB-19
SN12C = tested on: SN12C
SNB-75 = tested on: SNB-75
EKVX = tested on: EKVX
786-0 = tested on: 786-0
HOP-62 = tested on: HOP-62
A549 = tested on: A549
CAKI-1 = tested on: CAKI-1
SW-620 = tested on: SW-620
MDA-MB-231 = tested on: MDA-MB-231
BT-549 = tested on: BT-549
TK-10 = tested on: TK-10
OVCAR-8 = tested on: OVCAR-8
SK-MEL-2 = tested on: SK-MEL-2
Hs-578T = tested on: Hs-578T
UACC-257 = tested on: UACC-257
SK-OV-3 = tested on: SK-OV-3
OVCAR-4 = tested on: OVCAR-4
UACC-62 = tested on: UACC-62
CCRF-CEM = tested on: CCRF-CEM
NCI/ADR-RES = tested on: NCI/ADR-RES
K562 = tested on: K562
HOP-92 = tested on: HOP-92
KM12 = tested on: KM12
LOX IMVI = tested on: LOX IMVI
A498 = tested on: A498
UO-31 = tested on: UO-31
OVCAR-3 = tested on: OVCAR-3
T47D = tested on: T47D
IGROV-1 = tested on: IGROV-1
Malme-3M = tested on: Malme-3M
COLO 205 = tested on: COLO 205
SK-MEL-28 = tested on: SK-MEL-28
MOLT-4 = tested on: MOLT-4
U-251 = tested on: U-251
ACHN = tested on: ACHN
M14 = tested on: M14
SF-268 = tested on: SF-268
PC-3 = tested on: PC-3
OVCAR-5 = tested on: OVCAR-5
HCC 2998 = tested on: HCC 2998
SK-MEL-5 = tested on: SK-MEL-5
RXF 393 = tested on: RXF 393
SF-295 = tested on: SF-295
MCF7 = tested on: MCF7
MDA-MB-435 = tested on: MDA-MB-435
HT-29 = tested on: HT-29
RPMI-8226 = tested on: RPMI-8226
DU-145 = tested on: DU-145
HL-60 = tested on: HL-60
MDA-N = tested on: MDA-N
NCI-H460 = tested on: NCI-H460
HCT-116 = tested on: HCT-116
SR = tested on: SR
SF-539 = tested on: SF-539
NCI-H226 = tested on: NCI-H226

SMILES: O=C1Nc2ccccc2/C1=C\c1c(Cl)nc2n1CCS2
- GI50 (HCT-15): 22.5 µM
- GI50 (NCI-H522): 16.2 µM (inactive)
- GI50 (NCI-H23): 23.7 µM (inactive)
- GI50 (SNB-19): 35.6 µM (inactive)
- GI50 (SN12C): 24.9 µM (inactive)
- GI50 (SNB-75): 22.3 µM (inactive)
- GI50 (EKVX): 22.9 µM (inactive)
- GI50 (786-0): 23.4 µM (inactive)
- GI50 (HOP-62): 29 µM (inactive)
- GI50 (A549): 31.3 µM (inactive)
- GI50 (CAKI-1): 34.8 µM (inactive)
- GI50 (SW-620): 31.3 µM (inactive)
- GI50 (MDA-MB-231): 19 µM (inactive)
- GI50 (BT-549): 19.5 µM (inactive)
- GI50 (TK-10): 19.7 µM (inactive)
- GI50 (OVCAR-8): 34.4 µM (inactive)
- GI50 (SK-MEL-2): 14.1 µM (inactive)
- GI50 (Hs-578T): 16.6 µM (inactive)
- GI50 (UACC-257): 13.7 µM (inactive)
- GI50 (SK-OV-3): 19.5 µM (inactive)
- GI50 (OVCAR-4): 31.5 µM (inactive)
- GI50 (UACC-62): 13.5 µM (inactive)
- GI50 (CCRF-CEM): 26.9 µM (inactive)
- GI50 (NCI/ADR-RES): 23.6 µM (inactive)
- GI50 (K562): 21.3 µM (inactive)
- GI50 (HOP-92): 34 µM (inactive)
- GI50 (KM12): 17.9 µM (inactive)
- GI50 (LOX IMVI): 31.8 µM (inactive)
- GI50 (A498): 18.8 µM (inactive)
- GI50 (UO-31): 27 µM (inactive)
- GI50 (OVCAR-3): 20.4 µM (inactive)
- GI50 (T47D): 19.6 µM (inactive)
- GI50 (IGROV-1): 32.7 µM (inactive)
- GI50 (Malme-3M): 23.7 µM (inactive)
- GI50 (COLO 205): 17.9 µM (inactive)
- GI50 (SK-MEL-28): 32.4 µM (inactive)
- GI50 (MOLT-4): 30.4 µM (inactive)
- GI50 (U-251): 22.1 µM (inactive)
- GI50 (ACHN): 38.3 µM (inactive)
- GI50 (M14): 33.7 µM (inactive)
- GI50 (SF-268): 27.4 µM (inactive)
- GI50 (PC-3): 24.5 µM (inactive)
- GI50 (OVCAR-5): 29 µM (inactive)
- GI50 (HCC 2998): 17.9 µM (inactive)
- GI50 (SK-MEL-5): 14.6 µM (inactive)
- GI50 (RXF 393): 22.6 µM (inactive)
- GI50 (SF-295): 25.2 µM (inactive)
- GI50 (MCF7): 13 µM (inactive)
- GI50 (MDA-MB-435): 12.6 µM (inactive)
- GI50 (HT-29): 31.7 µM (inactive)
- GI50 (RPMI-8226): 27.7 µM (inactive)
- GI50 (DU-145): 30.6 µM (inactive)
- GI50 (HL-60): 16.8 µM (inactive)
- GI50 (MDA-N): 15.7 µM (inactive)
- GI50 (NCI-H460): 18.2 µM (inactive)
- GI50 (HCT-116): 23.6 µM (inactive)

SMILES: CC1OC(NCCNCCNC2OC(C)C(O)C(O)C2O)C(O)C(O)C1O (stereo not given)
- GI50 (HCT-15): > 100 µM
- GI50 (NCI-H522): > 100 µM (inactive)
- GI50 (NCI-H23): > 100 µM (inactive)
- GI50 (SR): > 100 µM (inactive)
- GI50 (SNB-19): > 100 µM (inactive)
- GI50 (SN12C): > 100 µM (inactive)
- GI50 (SNB-75): > 100 µM (inactive)
- GI50 (EKVX): > 100 µM (inactive)
- GI50 (786-0): > 100 µM (inactive)
- GI50 (HOP-62): > 100 µM (inactive)
- GI50 (A549): > 100 µM (inactive)
- GI50 (SW-620): > 100 µM (inactive)
- GI50 (MDA-MB-231): > 100 µM (inactive)
- GI50 (BT-549): > 100 µM (inactive)
- GI50 (TK-10): > 100 µM (inactive)
- GI50 (OVCAR-8): > 100 µM (inactive)
- GI50 (SK-MEL-2): > 100 µM (inactive)
- GI50 (Hs-578T): > 100 µM (inactive)
- GI50 (UACC-257): > 100 µM (inactive)
- GI50 (OVCAR-4): > 100 µM (inactive)
- GI50 (UACC-62): > 100 µM (inactive)
- GI50 (NCI/ADR-RES): > 100 µM (inactive)
- GI50 (K562): > 100 µM (inactive)
- GI50 (HOP-92): > 100 µM (inactive)
- GI50 (KM12): > 100 µM (inactive)
- GI50 (LOX IMVI): > 100 µM (inactive)
- GI50 (A498): > 100 µM (inactive)
- GI50 (UO-31): > 100 µM (inactive)
- GI50 (OVCAR-3): > 100 µM (inactive)
- GI50 (T47D): > 100 µM (inactive)
- GI50 (IGROV-1): > 100 µM (inactive)
- GI50 (Malme-3M): > 100 µM (inactive)
- GI50 (COLO 205): > 100 µM (inactive)
- GI50 (SK-MEL-28): > 100 µM (inactive)
- GI50 (MOLT-4): > 100 µM (inactive)
- GI50 (U-251): > 100 µM (inactive)
- GI50 (ACHN): > 100 µM (inactive)
- GI50 (M14): > 100 µM (inactive)
- GI50 (SF-268): > 100 µM (inactive)
- GI50 (PC-3): > 100 µM (inactive)
- GI50 (OVCAR-5): > 100 µM (inactive)
- GI50 (SF-539): > 100 µM (inactive)
- GI50 (SK-MEL-5): > 100 µM (inactive)
- GI50 (RXF 393): > 100 µM (inactive)
- GI50 (SF-295): > 100 µM (inactive)
- GI50 (MCF7): > 100 µM (inactive)
- GI50 (NCI-H226): > 100 µM (inactive)
- GI50 (HT-29): > 100 µM (inactive)
- GI50 (RPMI-8226): > 100 µM (inactive)
- GI50 (DU-145): > 100 µM (inactive)
- GI50 (HL-60): > 100 µM (inactive)
- GI50 (MDA-N): > 100 µM (inactive)
- GI50 (NCI-H460): > 100 µM (inactive)
- GI50 (HCT-116): > 100 µM (inactive)
